Laboratory results: patent publication US7884135B2, “Modafinil-based treatment for premature ejaculation” (NeuroHealing Pharmaceuticals, Inc., priority 2006, dated 2011)

Experiments:
[1] = cited from earlier work
[2] = system: ejaculation during sexual activity; assay: Delayed ejaculation with orally administered (tablet) racemic modafinil (Example 2, Subject 2); assay type: in vivo, human; settings: 200 mg oral PROVIGIL tablet, hours after dosing
Protocol: Subject 2 took racemic modafinil (200 mg) in the form of an orally administrable tablet of PROVIGIL® (Cephalon) at 3:00 pm for the purpose of increasing alertness.

mice = settings: cited from earlier work
[3] = system: ejaculation during sexual activity; assay: Delayed ejaculation with sublingually administered d-modafinil (Example 1, Subject 1); assay type: in vivo, human; settings: 100 mg d-modafinil formulation sublingually
Protocol: The synthesized d-modafinil was compounded into a composition containing sugar, spearmint flavor, cinnamon flavor, gum arabic, gelatin, corn syrup, and dyes that could be administered sublingually. Formulations containing 100 mg of d-modafinil were prepared.
Subject 1 took the above-described formulation of d-modafinil sublingually at 9:00 pm in the course of testing a composition containing d-modafinil for a different effect unrelated to sexual activity.

[4] = pharmacokinetic studies of modafinil in the human body (literature); assay type: in vivo; settings: l-enantiomer versus d-enantiomer
Protocol: The optical enantiomers of modafinil have similar pharmacological actions in animals. […] Owing to the differences in half-life and rate of clearance of the individual enantiomers, the use of racemic modafinil results in differences in the circulating levels of the two enantiomers. […] After a single oral dose, racemic modafinil is readily absorbed, reaching maximum plasma concentrations at 2 hours to 4 hours after administration (see, e.g., Wong et al., J. Clin. Pharmacol., 39: 3040 (1999); Wong et al., J. Clin. Pharmacol., 39: 281-288 (1999); Robertson et al., Clin. Pharmacokinet., 42: 123-137 (2003); and Dinges et al., Curr. Medical Research and Opinions, 22: 159-169 (2006)).

| SMILES | fraction of modafinil eliminated by the liver ([1]; humans, ingestion of PROVIGIL tablets, package insert) [%] | delay in ejaculation during sexual activity [2] | amount in the circulation relative to l-modafinil ([1]; after use of racemic modafinil) | elimination rate relative to l-modafinil ([1]; human, d-modafinil versus l-modafinil) | pharmacological activity compared with the modafinil racemic compound (mice) | time to ejaculate during sexual activity, factor longer than usual ([3]; first administration) | time to ejaculate during sexual intercourse, factor of delay ([3]; second administration a week later) | half-life relative to the d-enantiomer [4] |
| --- | --- | --- | --- | --- | --- | --- | --- | --- |
| NC(=O)C[S+]([O-])C(c1ccccc1)c1ccccc1 (racemic) [modafinil, 2-[(diphenylmethyl)sulfinyl]acetamide] | ≤ 90 | experienced a delay in ejaculation |  |  |  |  |  |  |
| NC(=O)C[S@+]([O-])C(c1ccccc1)c1ccccc1 [d-modafinil, S-(+)-modafinil] |  |  | three times less | three times faster | same pharmacological activity | about two to three | about two to three |  |
| NC(=O)C[S@@+]([O-])C(c1ccccc1)c1ccccc1 [l-modafinil, R-(−)-modafinil, reference compound] |  |  |  |  | same pharmacological activity |  |  | approximately three-times longer |
